From US20240122909A1, “TREATMENTS OF HEREDITARY ANGIOEDEMA” (KALVISTA PHARMACEUTICALS LIMITED, priority 2021, published 2024)

Experiments:
[1] = Phase 1 single ascending dose study, plasma pharmacokinetics; type: in vivo, human; conditions: oral capsule 5 mg to 600 mg, fasted healthy males
Description: (§1) This study was a randomized, double-blind, placebo-controlled single ascending dose (SAD) and crossover studies for food effect and capsule/tablet formulations.
Samples for pharmacokinetic (PK) and PD assessment were taken at repeated intervals over 48 hours.
Plasma samples used for PK assessment were analysed using a validated liquid chromatography tandem mass spectrometry (LC MS/MS) method.

HK = test: Phase 1 study, ex vivo DXS-stimulated cleavage of HK (Wes capillary immunoassay); type: in vivo, human; conditions: 600 mg capsules, up to 12 hrs post-dose
Description: DXS-stimulated cleavage of HK, in undiluted plasma was quantified by capillary-based immunoassay on the Wes System (ProteinSimple) using monoclonal anti-HK antibody and chemiluminescence-based detection. Plasma kallikrein mediated HK cleavage in undiluted citrated human plasma was induced by contact system activation with DXS (6.25 μg/ml) at 4° C. in selected samples from the SAD phase.

plasma prekallikrein = test: Phase 1 study, ex vivo DXS-stimulated cleavage of plasma prekallikrein (Wes); type: in vivo, human; conditions: 600 mg capsules, up to 12 hrs post-dose
Description: DXS-stimulated cleavage of plasma prekallikrein and Factor XII (FXII) were quantified by capillary-based immunoassay on the Wes System (ProteinSimple) analogously.

[2] = Phase 1 single ascending dose study, safety and tolerability; type: in vivo, human; conditions: phase I trial, healthy males
Description: as §1

PKa = PKa (Homo sapiens, UniProt P03952); test: Protection of HK from PKa-mediated cleavage in DXS-stimulated HAE and control plasma; type: biochemical; conditions: HAE and healthy control plasma stimulated with dextran sulfate, WES
Sequence of PKa (P03952 391-638 limits assumed): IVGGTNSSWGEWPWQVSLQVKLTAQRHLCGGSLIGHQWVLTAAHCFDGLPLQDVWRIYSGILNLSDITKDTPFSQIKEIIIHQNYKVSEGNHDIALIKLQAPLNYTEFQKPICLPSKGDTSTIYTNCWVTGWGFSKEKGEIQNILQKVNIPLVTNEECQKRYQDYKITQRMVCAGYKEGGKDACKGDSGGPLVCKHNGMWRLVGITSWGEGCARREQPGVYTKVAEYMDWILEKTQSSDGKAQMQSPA
Sequence of PKa (P03952 20-390 partner limits assumed): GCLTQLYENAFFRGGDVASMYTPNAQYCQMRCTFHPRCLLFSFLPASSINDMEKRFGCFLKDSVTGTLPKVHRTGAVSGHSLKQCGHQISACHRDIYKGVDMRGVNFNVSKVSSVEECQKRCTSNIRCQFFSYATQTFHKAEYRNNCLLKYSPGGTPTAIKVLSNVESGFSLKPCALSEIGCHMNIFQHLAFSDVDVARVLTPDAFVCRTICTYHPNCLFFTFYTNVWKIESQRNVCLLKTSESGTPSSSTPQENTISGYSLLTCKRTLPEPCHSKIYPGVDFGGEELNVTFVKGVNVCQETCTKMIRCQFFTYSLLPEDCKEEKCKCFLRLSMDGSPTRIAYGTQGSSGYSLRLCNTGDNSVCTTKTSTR
Description: High molecular weight kininogen (HK) cleavage in undiluted citrated human plasma was induced by contact system activation with dextran sulfate (DXS, Sigma #31395-10G; 6.25 μg/ml) on wet ice. […] HAE plasma was obtained from HAE subjects (n=6) and C1-inhibitor deficiency was confirmed by western blotting. Protection of HK from PKa mediated cleavage in DXS-stimulated whole undiluted plasma was then determined by two methods; traditional western blotting and a semi-automated capillary-based immunoassay.
Western blotting: SDS-PAGE gel electrophoresis was done using 7.5% Criterion TGX Precast gels (Bio-rad). Transfer was made onto Immobilon-FL PVDF membrane. Image analysis was performed using the LICOR imaging system. Mouse monoclonal anti-human HK antibody (MAB15692, R&D systems) was used for traditional immunoblotting.
Capillary-Based Immunoassay on the WES System (ProteinSimple):
Preparation of samples: Combine one part 5× fluorescent master mix with four parts of the 1:200 plasma sample. Vortex to mix. Heat the samples+fluorescent master mix and the biotinylated ladder at 95° C. for 5 minutes, vortex, and load onto the WES plate. […] The peak area is defined as the area calculated for the spectral peak profile for HK. To measure the plasma kallikrein inhibition by the compound, the percent full-length HK detected was calculated.

[3] = Phase 2 study, safety (drug-related TEAEs); type: in vivo, human
Description: Safety Variables: • AEs, including serious adverse events (SAEs). • Laboratory test results (clinical chemistry, hematology, coagulation, and urinalysis). • Vital signs (SBP, DBP, PR, RR, body temperature). • Physical examination findings. • ECG results. • Pregnancy test (female subjects of child-bearing potential).
AEs were coded using the Medical Dictionary for Regulatory Activities (MedDRA) dictionary (v21.0 or higher) and classified by preferred term and system organ class (SOC). Listings of treatment-emergent adverse events (TEAEs), serious TEAEs, and TEAEs causing premature discontinuation will be provided by sequence group, and further classified by TEAE severity and relationship to study drug.

[4] = Phase 1 multiple dose study, safety, tolerability and ECG; type: in vivo, human; conditions: total 1800 mg, healthy adults
Description: This was a phase 1, double-blind, placebo-controlled, multiple-dose, multiple-cohort study to evaluate safety and tolerability of the compound as well as of the ECG effects of the compound formulated as 100 mg Film Coated Tablets in healthy adult male and female subjects.
Four (4) cohorts were evaluated. Cohorts 1, 2 and 3 included 8 subjects each. Cohort 4 included 18 subjects. Every attempt was made to include an equal number of male and female subjects in each cohort.
During the study, oral doses of 600 mg of the compound as Film Coated Tablets (six 100 mg tablets) or 6 matching placebo tablets were administered once every 8 hours (Cohort 1) every 4 hours (Cohort 2), or every 2 hours (Cohort 3 and 4) to healthy adult male and female subjects up to a total dose of 1800 mg. In Cohorts 1, 2 and 3, 6 subjects received the compound as 100 mg Film Coated Tablets and 2 subjects received the placebo for a total of 8 subjects per cohort. In Cohort 4, 12 subjects received the compound as 100 mg Film Coated Tablets and 6 subjects received the placebo for a total of 18 subjects.
A Holter monitor was attached to each subject in order to continuously record ECGs. The monitor was attached 1 hour before the first dose and remained attached until after the final blood sample collection. The electrodes for the Holter monitor were checked by a member of the clinic staff at appropriate intervals to ensure they were attached.

plasma kallikrein = plasma kallikrein (Homo sapiens, UniProt P03952); test: Phase 1 study, ex vivo PKa catalytic activity in DXS-stimulated undiluted plasma; design: samples from a Phase 1 Single Ascending Dose Study in healthy adult males; from tissue; host or cells: undiluted plasma of healthy adult male volunteers after oral dosing; conditions: 600 mg tablet
Sequence of plasma kallikrein (P03952 391-638 limits assumed): as the sequence (P03952 391-638 limits assumed) above
Sequence of plasma kallikrein (P03952 20-390 partner limits assumed): as the sequence (P03952 20-390 partner limits assumed) above
Description: PD measurements were determined in dextran sulfate (DXS) stimulated undiluted plasma using a fluorogenic enzyme assay and capillary based HK cleavage immunoassay.
The time until appearance of detectable amidolytic enzyme activity in DXS-stimulated plasma (lag time) was calculated from the catalytic activity assay. The detection sensitivity of the rate of catalytic activity in plasma based on using a Spark (Tecan) fluorimeter is a fluorescence increase to reach 1ΔF unit/sec.

[5] = 3 x 600 mg every 8, 4 or 2 hours

## COCc1nn(Cc2ccc(Cn3ccccc3=O)cc2)cc1C(=O)NCc1nccc(OC)c1F [compound of Formula A, N-[(3-fluoro-4-methoxypyridin-2-yl)methyl]-3-(methoxymethyl)-1-({4-[(2-oxopyridin-1-yl)methyl]phenyl}methyl)pyrazole-4-carboxamide]
[1]
  plasma exposure: rapid and dose-dependent plasma exposure
HK
  effect on HK cleavage: reduces HK cleavage
Plasma prekallikrein
  effect on PPK cleavage: reduces PPK cleavage
[2]
  tolerability: no tolerability signals
PKa
  protection against HK cleavage: dose dependent protection against HK cleavage
[3]; Part 1, open-label phase
  on-treatment drug-related TEAE, number of events: 8
  patients with on-treatment drug-related TEAE: 5 patients
[3]; Part 2, crossover phase
  on-treatment drug-related TEAE, number of events: 3
  patients with on-treatment drug-related TEAE: 5.2%
[4]; [5]
  serious adverse events: No serious adverse events
  severity of reported adverse events: mild
[4]; 3 x 600 mg
  effects on ECG parameters: No clinically relevant effects on the studied ECG parameters
Plasma kallikrein
  lag time until appearance of catalytic activity during contact system activation: increases the time until appearance of catalytic activity
Plasma kallikrein; fed vs fasted
  food effect on pharmacodynamic profile: no significant food-effect
